Data reported in patent US20040102431A1, “Substituted amino-aza-cycloalkanes useful against malaria” (priority 2000, published 2004).
Square brackets hold non-standard residues; d marks the D form. Peptide text beside a SMILES is read from it. * marks the point of attachment. Sta = CC(C)C[C@H](N)[C@@H](O)CC(=O)O; Isovaleryl = CC(C)CC(=O)*

System: P. falciparum
Assay: not given
Details: cited from earlier work

Compound | growth of P. falciparum in red blood cells in vitro
CC(C)CC(=O)N[C@H](C(=O)N[C@H](C(=O)N[C@@H](CC(C)C)[C@@H](O)CC(=O)N[C@@H](C)C(=O)N[C@@H](CC(C)C)[C@@H](O)CC(=O)O)C(C)C)C(C)C [Pepstatin] (Isovaleryl-VV[Sta]A[Sta]-OH) | inhibits the growth

Target: plasmepsin II (Plasmodium falciparum, UniProt P46925)
Assay: biochemical
Details: Additional Examples table; FRET, pH 5, 37° C., 40 min, substrate 1 μM; read-out: IC50 (nM) on plasmepsin II

plasmepsin II, sequence (P46925 125-453): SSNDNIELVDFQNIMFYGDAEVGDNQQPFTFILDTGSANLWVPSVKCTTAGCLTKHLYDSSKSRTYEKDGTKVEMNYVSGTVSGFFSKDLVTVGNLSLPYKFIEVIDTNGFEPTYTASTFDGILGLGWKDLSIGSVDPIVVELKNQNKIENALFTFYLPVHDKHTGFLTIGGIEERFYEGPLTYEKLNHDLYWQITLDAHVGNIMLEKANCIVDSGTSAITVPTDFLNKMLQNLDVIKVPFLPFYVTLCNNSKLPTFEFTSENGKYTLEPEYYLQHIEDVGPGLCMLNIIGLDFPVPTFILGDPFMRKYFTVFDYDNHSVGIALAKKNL

IC50 [nM] | Compound
618 | CCCCCc1ccc(CN(Cc2ccc(-c3cncnc3)cc2)C2CCN(Cc3ccccc3)CC2)cc1 [Example 107, (1-Benzylpiperidin-4-yl)-(4-pentyl-benzyl)-(4-pyrimidin-5-ylbenzyl)amine]
634 | CCCCCc1ccc(CN(Cc2ccc(-c3cccc(C(F)(F)F)c3)cc2)C2CCN(Cc3ccccc3)CC2)cc1 [Example 108, (1-Benzylpiperidin-4-yl)-(4-pentyl-benzyl)-(3′-trifluoromethyl-biphenyl-4-ylmethyl)amine]
656 | CCCCCc1ccc(CN(Cc2ccc(-c3ccccc3F)cc2)C2CCN(Cc3ccccc3)CC2)cc1 [Example 109, (1-Benzylpiperidin-4-yl)-(2′-fluoro-biphenyl-4-ylmethyl)-(4-pentyl-benzyl)amine]
692 | CCCCCc1ccc(C(=O)N(Cc2ccc(-c3ccccc3)cc2)C2CCN(Cc3ccc(OC(F)(F)F)cc3)CC2)cc1 [Example 110, N-Biphenyl-4-ylmethyl-4-pentyl-N-[1-(4-trifluoromethoxybenzyl)piperidin-4-yl]benzamide]
749 | CCCCCc1ccc(C(=O)N(C2CCN(Cc3ccccc3)CC2)[C@H](CO)Cc2ccc(OCc3ccccc3)cc2)cc1 [Example 111, N-[(1S)-2-(4-Benzyloxyphenyl)-1-hydroxymethylethyl]-N-(1-benzyl-piperidin-4-yl)-4-pentylbenzamide]
816 | CCCCCc1ccc(C(=O)N(Cc2ccc(-c3cccc(OC(F)(F)F)c3)cc2)C2CCN(Cc3ccccc3)CC2)cc1 [Example 113, N-(1-Benzylpiperidin-4-yl)-4-pentyl-N-(3′-trifluoromethoxy-biphenyl-4-ylmethyl)benzamide]
817 | CCCCCc1ccc(C(=O)N(Cc2ccc(OCc3ccccc3)cc2)[C@@H]2CCN(Cc3ccccc3)C2)cc1 [Example 114, N-(4-Benzyloxybenzyl)-N-((3R)-1-benzylpyrrolidin-3-yl)-4-pentyl-benzamide]
839 | CCCCCc1ccc(C(=O)N(Cc2ccc(N(CCCC)CCCC)cc2)C2CCN(Cc3ccccc3)CC2)cc1 [Example 115, N-(1-Benzylpiperidin-4-yl)-N-(4-dibutylaminobenzyl)-4-pentyl-benzamide]
882 | CCCCCc1ccc(C(=O)N(Cc2ccc(O)cc2)C2CCN(Cc3ccccc3)CC2)cc1 [Example 116, N-(1-Benzylpiperidin-4-yl)-N-(4-hydroxybenzyl)-4-pentyl-benzamide]
933 | CCCCCC(=Cc1ccccc1)CN(C(=O)c1ccc(CCCCC)cc1)C1CCN(Cc2ccccc2)CC1 [Example 117, N-(1-Benzylpiperidin-4-yl)-4-pentyl-N-(2-pentyl-3-phenylallyl)benzamide]
942 | CCCCCC12CCC(C(=O)N(Cc3ccc(-c4ccccc4)cc3)C3CCN(Cc4ccccc4)CC3)(CC1)CC2 [Example 118, 4-Pentylbicyclo[2.2.2]octane-1-carboxylic acid(1-benzylpiperidin-4-yl)-biphenyl-4-ylmethylamide]

Compound | IC50 [nM]
CCCCCc1ccc(C(=O)N(Cc2ccc(OCc3ccccc3)cc2)C2CCN(CCc3ccccc3)CC2)cc1 [Example 112, N-(4-Benzyloxybenzyl)-4-pentyl-N-(1-phenethylpiperidin-4-yl)benzamide] | 761
CCCCCc1ccc(C(=O)N(Cc2ccc(-c3cccnc3)cc2)C2CCN(Cc3ccc(O)cc3)CC2)cc1 [N-[1-(4-Hydroxybenzyl)piperidin-4-yl]-4-pentyl-N-(4-pyridin-3-yl-benzyl)benzamide] | 105
